The text below walks through data of ChEMBL document CHEMBL1142396, “Structure-activity relationships among the nitrogen containing bisphosphonates in clinical use and other analogues: time-dependent inhibition of human farnesyl pyrophosphate synthase” (J Med Chem, 2008).

Activity calls are given as the source filed them. No cut-off for these calls is given here. Bounds are passed on as bounds.

The species entered for one experiment is Rattus norvegicus. Kind of experiment: Inhibition of bone resorption in rat assessed as phosphate. It is filed as functional.
Experiment [1] has as its target T1, Farnesyl pyrophosphate synthase (Homo sapiens, UniProt P14324).
T1 sequence (P14324 whole entry): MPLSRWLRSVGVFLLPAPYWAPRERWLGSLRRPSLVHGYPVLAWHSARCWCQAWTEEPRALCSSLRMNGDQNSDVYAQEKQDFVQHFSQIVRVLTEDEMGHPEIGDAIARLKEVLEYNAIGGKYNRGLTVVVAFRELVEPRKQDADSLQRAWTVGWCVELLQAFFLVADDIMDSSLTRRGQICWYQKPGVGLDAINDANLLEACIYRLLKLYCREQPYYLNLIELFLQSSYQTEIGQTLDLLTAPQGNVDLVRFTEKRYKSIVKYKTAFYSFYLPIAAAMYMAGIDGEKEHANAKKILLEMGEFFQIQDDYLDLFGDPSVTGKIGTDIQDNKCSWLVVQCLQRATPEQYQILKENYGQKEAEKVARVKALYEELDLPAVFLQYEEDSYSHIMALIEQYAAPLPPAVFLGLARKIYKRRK

Experiment [2] has as its target T1, Farnesyl pyrophosphate synthase. This is another data set of the same source.

In general, IC50 refers to the point on the concentration scale where inhibition reaches its midpoint. Low values mean greater potency, high ones weaker potency. What is called Ki is a dissociation constant, usually derived from enzyme kinetics or from competition with a known ligand. A high value points to lower affinity.

Regarding `Cc1cccnc1NCC(P(=O)(O)O)P(=O)(O)O`, the LED in the experiment listed under Rattus norvegicus was 1000 µg/kg. In experiment [1], the IC50 worked out at 0.734 µM and affinity was put at a Ki of 0.196 µM. In experiment [2], it took 0.989 µM to reach half-maximal inhibition (IC50) and the Ki was 0.155 µM.
In experiment [1], `NCCCCC(O)(P(=O)(O)O)P(=O)(O)O` gave an IC50 of 0.298 µM and a Ki of 0.0482 µM. In experiment [2], this molecule showed an IC50 of 1.08 µM and an inhibitory constant (Ki) of 0.194 µM.
Consider `O=P(O)(O)C(Nc1ccccn1)P(=O)(O)O`, for which the LED in the experiment filed under Rattus norvegicus came out at 10 µg/kg.
`Cc1cccnc1NC(P(C)(=O)O)P(=O)(O)O` (stereo not given): the LED in the experiment filed under Rattus norvegicus is 1000 µg/kg. Further, the figures for the IC50 in experiment [1] and in experiment [2] were 0.0614 µM and 1.89 µM, respectively. Also, the Ki in experiment [1] was found to be 0.0116 µM; in experiment [2], 0.32 µM.
On to `O=P(O)(O)CCc1cccnc1`, for which, in experiment [1], the IC50 came out at 824 µM and the Ki is 128 µM.
For the molecule `O=P(O)(O)OP(=O)(O)O` [PYROPHOSPHORIC ACID], in experiment [1], it took 181 µM to reach half-maximal inhibition (IC50) and the inhibition constant (Ki) came out at 29.8 µM. For the same molecule, in experiment [2], half-maximal inhibition (IC50) required 243 µM and the affinity, expressed as Ki, was 40.5 µM.
Turning to `O.O=P(O)(O)C(O)(Cn1ccnc1)P(=O)(O)O` [ZOLEDRONIC ACID], the LED in the experiment listed under Rattus norvegicus was 0.1 µg/kg.
On to `O=P(O)(O)C(Cc1cccnc1)P(=O)(O)O`, for which the LED in the experiment listed under Rattus norvegicus is 10 µg/kg. In experiment [1], this molecule showed a half-inhibitory concentration (IC50) of 0.0326 µM and a Ki of 0.0074 µM. In experiment [2], this molecule returned an IC50 of 0.173 µM and a Ki of 0.0348 µM.
In the case of `O=P(O)(O)C(O)(Cc1ccccn1)P(=O)(O)O`, in the experiment listed under Rattus norvegicus, the LED was 1 µg/kg. Also, the values for the IC50 in experiment [1] and in experiment [2] were 0.0092 µM and 0.349 µM, respectively. Moreover, the Ki in experiment [1] is 0.00074 µM; in experiment [2], 0.0593 µM.
Consider `NCCCC(O)(P(=O)(O)O)P(=O)(O)O` [ALENDRONIC ACID], for which the LED in the experiment filed under Rattus norvegicus stood at 1 µg/kg.
The same measure, in the same setting: the same measure for `NCCC(O)(P(=O)(O)O)P(=O)(O)O` [PAMIDRONIC ACID]: 30 µg/kg; for `Cc1cccnc1NC(P(=O)(O)O)P(=O)(O)O`: 1 µg/kg.
`O=P(O)(O)C(O)(Cc1ccccc1)P(=O)(O)O`: in the experiment filed under Rattus norvegicus, the LED stood at 100 µg/kg.
Take `CC1CCCN=C1NC(P(=O)(O)O)P(=O)(O)O` (stereo not given): the LED in the experiment filed under Rattus norvegicus is 0.3 µg/kg. Also, the IC50 in experiment [1] is 0.0103 µM; in experiment [2] it was 0.541 µM. Besides, the Ki stood at 0.001 µM in experiment [1] and 0.0863 µM in experiment [2].
The corresponding values for `C[n+]1cccc(CC(O)(P(=O)(O)O)P(=O)(O)O)c1` are 0.1 µg/kg, 0.0196 µM, 1.71 µM, 0.0039 µM and 0.177 µM.
Take `O=C(O)C(O)(Cc1cccnc1)P(=O)(O)O` (stereo not given): in the experiment filed under Rattus norvegicus, the LED is 300 µg/kg. Also, the Ki in experiment [1] was found to be 61 µM; in experiment [2], 97.5 µM. For the same molecule, inhibition in experiment [2] was half-maximal at 467 µM (IC50).
Consider `CCCCCN(C)CCC(O)(P(=O)(O)O)P(=O)(O)O` [IBANDRONIC ACID], for which the LED in the experiment listed under Rattus norvegicus is 0.1 µg/kg.
The same measure, in the same setting: the same measure for `NCCCCCC(O)(P(=O)(O)O)P(=O)(O)O` [NERIDRONIC ACID]: 10 µg/kg.
As to `O=P(O)(O)C(Cc1ccccn1)P(=O)(O)O` [PIRIDRONIC ACID], the LED in the experiment listed under Rattus norvegicus came to 10 µg/kg. Further, in experiment [1], the IC50 turned out to be 0.0304 µM and affinity was put at a Ki of 0.00445 µM. In experiment [2], this molecule yielded an IC50 of 0.259 µM and a Ki of 0.039 µM.
As for `O=P(O)(O)C(NC1CCCCC1)P(=O)(O)O` [(CYCLOHEXYLAMINO)METHYLENEDIPHOSPHONIC ACID], the LED in the experiment listed under Rattus norvegicus worked out at 1 µg/kg.
As for `Nc1ccccc1CC(O)(P(=O)(O)O)P(=O)(O)O`, in the experiment filed under Rattus norvegicus, the LED worked out at 1 µg/kg. Further, in experiment [1], the IC50 amounted to 0.0216 µM and the Ki turned out to be 0.0034 µM. For the same molecule, in experiment [2], the IC50 came out at 0.371 µM and the Ki was 0.0646 µM.
Regarding `O=P(O)(O)C(O)(Cc1cccnc1)P(=O)(O)O` [RISEDRONIC ACID], the LED in the experiment listed under Rattus norvegicus is 0.3 µg/kg.
Regarding `Cc1cccnc1NC(P(C)(=O)O)P(C)(=O)O` (stereo not given), the outcome in the experiment listed under Rattus norvegicus was inactive. In experiment [1], inhibition was half-maximal at 330 µM (IC50) and the Ki was found to be 93 µM. Moreover, in experiment [2], the IC50 was more than 10000 µM and the Ki was more than 4000 µM.
For the molecule `O=P(O)(O)C(CC1CCCCN1)P(=O)(O)O` (stereo not given), in experiment [1], half-maximal inhibition (IC50) required 0.0238 µM and the Ki is 0.00328 µM. In experiment [2], the IC50 is 0.869 µM and the Ki is 0.112 µM.
As for `O=P(O)(O)C(CNc1ccccn1)P(=O)(O)O`, the LED in the experiment listed under Rattus norvegicus turned out to be 10 µg/kg.
`O=P(O)(O)C(O)(CC1CCCCN1)P(=O)(O)O` (stereo not given): the LED in the experiment listed under Rattus norvegicus came out at 1 µg/kg. Besides, in experiment [1], the IC50 stood at 0.0137 µM and affinity was put at a Ki of 0.0016 µM. In addition, in experiment [2], 0.592 µM corresponded to half-maximal inhibition (IC50) and the affinity corresponds to a Ki of 0.137 µM.
Turning to `O=P(O)(O)C(O)(CCc1cccnc1)P(=O)(O)O`, in the experiment filed under Rattus norvegicus, the LED turned out to be 1000 µg/kg.
